Data from US6737383B1, “Herbicidal oxadiazolidines” (priority 1999, dated 2004).

Legend:
bedstraw = assay: Test B pre/postemergence bedstraw; assay type: in vivo, Galium aparine
Outline: (§1)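 Test chemicals in a non-phytotoxic solvent mixture with surfactant were sprayed preemergence onto planted seeds and postemergence onto plants 2 to 18 cm tall (1- to 4-leaf stage). After twelve to sixteen days in a greenhouse, injury was visually rated against untreated controls from 0 (no effect) to 10 (complete control).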

blackgrass = assay: Test B pre/postemergence blackgrass; assay type: in vivo, Alopecurus myosuroides
Outline: as §1

surinam grass = assay: Test B pre/postemergence surinam grass; assay type: in vivo, Brachiaria decumbens
Outline: as §1

corn = assay: Test B pre/postemergence corn; assay type: in vivo, Zea mays
Outline: as §1

crabgrass = assay: Test B pre/postemergence crabgrass; assay type: in vivo, Digitaria sanguinalis
Outline: as §1

pigweed = assay: Test B pre/postemergence pigweed; assay type: in vivo, Amaranthus retroflexus
Outline: as §1

rape = assay: Test B pre/postemergence rape; assay type: in vivo, Brassica napus
Outline: as §1

soybean = assay: Test B pre/postemergence soybean; assay type: in vivo, Glycine max
Outline: as §1

sugar beet = assay: Test B pre/postemergence sugar beet; assay type: in vivo, Beta vulgaris
Outline: as §1

velvetleaf = assay: Test B pre/postemergence velvetleaf; assay type: in vivo, Abutilon theophrasti
Outline: as §1

wheat = assay: Test B pre/postemergence wheat; assay type: in vivo, Triticum aestivum
Outline: as §1

wild oat = assay: Test B pre/postemergence wild oat; assay type: in vivo, Avena fatua
Outline: as §1

purple nutsedge = assay: Test B pre/postemergence purple nutsedge; assay type: in vivo, Cyperus rotundus
Outline: as §1

rice = assay: Test B flood test rice; assay type: in vivo, Oryza sativa
Outline: (§2)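 Plants were grown to the 2-leaf stage before treatment with test chemical, then held in a greenhouse for twelve to sixteen days. Injury was visually rated against untreated controls on a 0–10 scale, where 0 is no effect and 10 is complete control.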

smallflower flatsedge = assay: Test B flood test smallflower flatsedge; assay type: in vivo, Cyperus difformis
Outline: as §2

duck salad = assay: Test B flood test duck salad; assay type: in vivo, Heteranthera limosa
Outline: as §2

[1] = Postemergence, Rate 250 g/ha, scale 0 to 10, 0 no effect, 10 complete control
[2] = Postemergence, Rate 1000 g/ha, scale 0 to 10 (0 no effect, 10 complete control)
[3] = Preemergence, Rate 125 g/ha, scale 0 to 10 (0 no effect, 10 complete control)
[4] = Preemergence, Rate 250 g/ha, scale of 0 to 10 where 0 is no effect and 10 is complete control
[5] = Preemergence, Rate 500 g/ha, scale 0 (no effect) to 10 (complete control)
[6] = Rate 125 g/ha, Postemergence, scale 0 to 10, 0 no effect, 10 complete control
[7] = Rate 500 g/ha, Postemergence, 0 to 10 scale (0 no effect, 10 complete control)
[8] = Rate 1000 g/ha, Preemergence, scale 0 to 10 (0 no effect, 10 complete control)
[9] = Rate 125 g/ha, Postemergence section (flood test species), scale 0 to 10, 0 no effect, 10 complete control
[10] = Rate 500 g/ha, Postemergence section of Table B, 0 to 10 scale (0 no effect, 10 complete control)
[11] = flood test, listed under Postemergence, Rate 250 g/ha, scale 0 to 10, 0 no effect, 10 complete control

CCN(CC)C(=O)n1oc(=O)n(-c2ccc(OC(F)(F)F)cc2)c1=O [Compound 12]
Bedstraw plant response rating (bedstraw; [1]): 0
Bedstraw plant response rating (bedstraw; [2]): 0
Plant response rating, Bedstraw (bedstraw; [3]): 0
Plant response rating, Bedstraw (bedstraw; [4]): 0
Bedstraw plant response rating (bedstraw; [5]): 0
Bedstraw plant response rating (bedstraw; [6]): 0
Bedstraw plant response rating (bedstraw; [7]): 0
Plant response rating, Bedstraw (bedstraw; [8]): 0
Blackgrass plant response rating (blackgrass; [1]): 0
Blackgrass plant response rating (blackgrass; [2]): 0
Plant response rating, Blackgrass (blackgrass; [3]): 0
Plant response rating, Blackgrass (blackgrass; [4]): 0
Blackgrass plant response rating (blackgrass; [5]): 2
Blackgrass plant response rating (blackgrass; [6]): 0
Blackgrass plant response rating (blackgrass; [7]): 0
Plant response rating, Blackgrass (blackgrass; [8]): 4
B. signalgrass plant response rating (surinam grass; [1]): 0
B. signalgrass plant response rating (surinam grass; [2]): 0
Plant response rating, B. signalgrass (surinam grass; [3]): 0
Plant response rating, B. signalgrass (surinam grass; [4]): 0
B. signalgrass plant response rating (surinam grass; [5]): 0
B. signalgrass plant response rating (surinam grass; [6]): 0
B. signalgrass plant response rating (surinam grass; [7]): 0
Plant response rating, B. signalgrass (surinam grass; [8]): 6
Corn plant response rating (corn; [1]): 0
Corn plant response rating (corn; [2]): 0
Plant response rating, Corn (corn; [3]): 0
Plant response rating, Corn (corn; [4]): 0
Corn plant response rating (corn; [5]): 0
Corn plant response rating (corn; [6]): 0
Corn plant response rating (corn; [7]): 0
Plant response rating, Corn (corn; [8]): 0
Crabgrass plant response rating (crabgrass; [1]): 0
Crabgrass plant response rating (crabgrass; [2]): 0
Plant response rating, Crabgrass (crabgrass; [3]): 0
Plant response rating, Crabgrass (crabgrass; [4]): 0
Crabgrass plant response rating (crabgrass; [5]): 0
Crabgrass plant response rating (crabgrass; [6]): 0
Crabgrass plant response rating (crabgrass; [7]): 0
Plant response rating, Crabgrass (crabgrass; [8]): 6
Redroot pigweed plant response rating (pigweed; [1]): 0
Redroot pigweed plant response rating (pigweed; [2]): 0
Plant response rating, Redroot pigweed (pigweed; [3]): 0
Plant response rating, Redroot pigweed (pigweed; [4]): 0
Redroot pigweed plant response rating (pigweed; [5]): 0
Redroot pigweed plant response rating (pigweed; [6]): 0
Redroot pigweed plant response rating (pigweed; [7]): 0
Plant response rating, Redroot pigweed (pigweed; [8]): 0
Rape plant response rating (rape; [1]): 0
Rape plant response rating (rape; [2]): 0
Plant response rating, Rape (rape; [3]): 0
Plant response rating, Rape (rape; [4]): 0
Rape plant response rating (rape; [5]): 0
Rape plant response rating (rape; [6]): 0
Rape plant response rating (rape; [7]): 0
Plant response rating, Rape (rape; [8]): 0
Soybean plant response rating (soybean; [1]): 0
Soybean plant response rating (soybean; [2]): 1
Plant response rating, Soybean (soybean; [3]): 0
Plant response rating, Soybean (soybean; [4]): 0
Soybean plant response rating (soybean; [5]): 0
Soybean plant response rating (soybean; [6]): 0
Plant response rating, Soybean (soybean; [8]): 0
Sugarbeets plant response rating (sugar beet; [1]): 0
Sugarbeets plant response rating (sugar beet; [2]): 0
Plant response rating, Sugarbeets (sugar beet; [3]): 0
Plant response rating, Sugarbeets (sugar beet; [4]): 0
Sugarbeets plant response rating (sugar beet; [5]): 0
Sugarbeets plant response rating (sugar beet; [6]): 0
Plant response rating, Sugarbeets (sugar beet; [8]): 0
Velvetleaf plant response rating (velvetleaf; [1]): 0
Velvetleaf plant response rating (velvetleaf; [2]): 0
Plant response rating, Velvetleaf (velvetleaf; [3]): 0
Plant response rating, Velvetleaf (velvetleaf; [4]): 0
Velvetleaf plant response rating (velvetleaf; [5]): 0
Velvetleaf plant response rating (velvetleaf; [6]): 0
Plant response rating, Velvetleaf (velvetleaf; [8]): 0
Wheat plant response rating (wheat; [1]): 0
Wheat plant response rating (wheat; [2]): 0
Plant response rating, Wheat (wheat; [3]): 0
Plant response rating, Wheat (wheat; [4]): 0
Wheat plant response rating (wheat; [5]): 0
Wheat plant response rating (wheat; [6]): 0
Plant response rating, Wheat (wheat; [8]): 0
Wild oats plant response rating (wild oat; [1]): 0
Wild oats plant response rating (wild oat; [2]): 0
Plant response rating, Wild oats (wild oat; [3]): 0
Plant response rating, Wild oats (wild oat; [4]): 0
Wild oats plant response rating (wild oat; [5]): 0
Wild oats plant response rating (wild oat; [6]): 0
Plant response rating, Wild oats (wild oat; [8]): 0
Nutsedge plant response rating (purple nutsedge; [1]): 0
Nutsedge plant response rating (purple nutsedge; [2]): 0
Plant response rating, Nutsedge (purple nutsedge; [3]): 0
Plant response rating, Nutsedge (purple nutsedge; [4]): 0
Nutsedge plant response rating (purple nutsedge; [5]): 0
Nutsedge plant response rating (purple nutsedge; [6]): 0
Nutsedge plant response rating (purple nutsedge; [7]): 0
Plant response rating, Nutsedge (purple nutsedge; [8]): 0
Rice plant response rating (rice; [2]): 0
Rice plant response rating (rice; [9]): 0
Rice plant response rating (rice; [10]): 0
Rice plant response rating (rice; [11]): 0
S. Flatsedge plant response rating (smallflower flatsedge; [2]): 0
S. Flatsedge plant response rating (smallflower flatsedge; [9]): 0
S. Flatsedge plant response rating (smallflower flatsedge; [11]): 0
Ducksalad plant response rating (duck salad; [2]): 0
Ducksalad plant response rating (duck salad; [9]): 0
Ducksalad plant response rating (duck salad; [10]): 0
Ducksalad plant response rating (duck salad; [11]): 0
